“Also recorded” adds a separate entry of the source. Each block holds one compound with its values, some of them ahead of it.
Columns and labels:
[1] = system: DRD2 (short and long isoforms); experiment: GPCR β-arrestin recruitment reporter assay, DRD2; format: cell-based; settings: for activity at DRD2: arrestin recruitment reporter assay
DRD5 = DRD5 (Homo sapiens, UniProt P21918); experiment: GPCR β-arrestin recruitment reporter assay, DRD5; format: cell-based
[2] = system: recurrent high grade glioma; experiment: Progression-free survival of patients with recurrent high grade glioma; format: in vivo, human; settings: H3 K27M (n=15) vs wild-type or unknown H3 status (n=35)
Description: In one study of thirty-nine pediatric diffuse intrinsic pontine gliomas, DIPG patients carrying the K27M-H3.3 mutation (n=30) have worse overall survival compared to patients wild-type (n=9) for this histone (Khoung-Quang et al., Acta Neuropathol (2012) 124:439). […] The cohort is divided into two groups: one with known H3 K27M mutation (n=15) and the other with wild-type or unknown H3 status (n=35).

[3] = system: temozolomide-resistant high-grade glioma xenografts; experiment: High-grade glioma xenografts in mice; format: in vivo
[4] = system: GDSC collection of cell lines; experiment: Genomic of Drug Sensitivity in Cancer (GDSC) cell line collection; format: cell-based, human; settings: cell viability at 72 hours post-treatment
Description: FIG. 2. Tumor type sensitivity of the Genomic of Drug Sensitivity in Cancer program (GDSC) cell line collection. […] Numbers above the bar indicates indicate the number of cell lines per tumor type.
High expression of DRD2 occurred in primary, rather than secondary, glioblastoma and was associated with a poor prognosis. […] Resistance could be recapitulated with overexpression of the mutant DRD5 gene or, to a lesser extent, with the wild-type gene.

DRD4 = DRD4 (Homo sapiens, UniProt P21917); settings: arrestin recruitment reporter assay
DRD2 = DRD2 (Homo sapiens, UniProt P14416); settings: relative to antipsychotics
MV411 AML cells = experiment: MV411 AML xenograft model; settings: 50 mg/kg, oral weekly administration (ONC201 at similar doses)
[5] = system: tumor cells (HCT116, MDA-MB-231, U87); experiment: Cell viability of tumor cells after 72 hours; settings: Homo sapiens, read-out: viability of tumor cells
[6] = system: H3.3 K27M mutant diffuse intrinsic pontine glioma (DIPG); experiment: Treatment of girls with H3.3 K27M mutant DIPG; settings: for symptoms / radiographic evaluation of tumor: child
[7] = Phase II recurrent glioblastoma trial (NCT02525692); settings: human, in vivo, 625 mg
recurrent glioblastoma = experiment: as above
GPCRs = experiment: In vitro profiling of GPCR activity (arrestin recruitment panel)
[8] = system: NCI60 cancer cell line panel; experiment: NCI60 cancer cell line panel; format: cell-based; settings: NCI60 panel (FIG. 4)
[9] = system: Ewing's sarcoma cell lines; experiment: Ewing's sarcoma cell lines; format: cell-based; settings: 16 Ewing's sarcoma cell lines (FIG. 6, 7)
[10] = system: patient-derived glioma stem cell (GSC) populations; experiment: Patient-derived glioma stem cell assays (CellTiter-Glo, limiting dilution, sphere formation); format: cell-based, human
Description: In silico analysis of a glioma patient database led to investigation of DRD2 signaling in glioma; alteration of DRD2 mRNA expression was directly connected to global gene expression change in the glioma patient database.

Bone cancer = Bone cancer responsiveness; format: cell-based; settings: FIG. 5
HFF (Normal Fibroblast) = experiment: Cell viability of HFF normal fibroblasts; settings: therapeutic doses, Table 5
several cell lines = experiment: In vitro potency in several cell lines (Table 5)
DRD3 = DRD3 (Homo sapiens, UniProt P35462); experiment: GPCR β-arrestin recruitment reporter assay, DRD3; format: cell-based
GPR132 = target: T1, GPR132 (Homo sapiens, UniProt Q9UNW8); experiment: GPCR arrestin recruitment reporter assay, GPR132; format: cell-based; settings: for activity at GPR132: arrestin recruitment reporter assay
T1 construct: expressed in transfected cells
T1 sequence (Q9UNW8 1-380): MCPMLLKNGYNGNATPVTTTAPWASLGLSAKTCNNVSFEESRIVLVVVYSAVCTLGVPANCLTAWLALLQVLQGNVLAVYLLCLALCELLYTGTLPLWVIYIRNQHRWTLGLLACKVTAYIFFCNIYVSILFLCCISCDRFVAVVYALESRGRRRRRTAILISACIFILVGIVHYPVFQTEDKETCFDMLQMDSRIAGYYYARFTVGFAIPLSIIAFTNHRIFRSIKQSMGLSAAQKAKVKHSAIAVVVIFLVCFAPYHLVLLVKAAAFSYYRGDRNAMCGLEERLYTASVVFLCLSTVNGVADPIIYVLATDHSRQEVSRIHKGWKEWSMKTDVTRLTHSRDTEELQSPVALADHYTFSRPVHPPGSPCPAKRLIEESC
Protocol: (§1) Dual targeting of DRD2/3 and GPR132/91 represents a novel strategy for anti-cancer efficacy without toxicity. […] The safety profile of ONC213 confirmed in mouse MTD study with NOAEL 75 mg/kg three times that of ONC212 (25 mg/kg).
(§2) ONC201 dihydrochloride was obtained from Oncoceutics.

GPR91 = target: T2, GPR91 (Homo sapiens, UniProt Q9BXA5); experiment: GPCR arrestin recruitment reporter assay, GPR91; format: cell-based
T2 construct: expressed in transfected cells
Protocol: as §1, §2

CXCR7 = target: T3, CXCR7 (Homo sapiens, UniProt P25106); experiment: GPCR arrestin recruitment reporter assay, CXCR7; format: cell-based
T3 construct: expressed in transfected cells
Description: as §2

HCT116 cells = experiment: Anticancer efficacy in HCT116 cells; format: cell-based, human; settings: HCT116 cells
DRD2L = DRD2L (Homo sapiens, UniProt P14416); experiment: Arrestin recruitment to DRD2L, Gaddum/Schild EC50 shift analysis; format: cell-based
[11] = 17 patients, 625 mg every three weeks

Chain of DRD5 (P21918 whole entry): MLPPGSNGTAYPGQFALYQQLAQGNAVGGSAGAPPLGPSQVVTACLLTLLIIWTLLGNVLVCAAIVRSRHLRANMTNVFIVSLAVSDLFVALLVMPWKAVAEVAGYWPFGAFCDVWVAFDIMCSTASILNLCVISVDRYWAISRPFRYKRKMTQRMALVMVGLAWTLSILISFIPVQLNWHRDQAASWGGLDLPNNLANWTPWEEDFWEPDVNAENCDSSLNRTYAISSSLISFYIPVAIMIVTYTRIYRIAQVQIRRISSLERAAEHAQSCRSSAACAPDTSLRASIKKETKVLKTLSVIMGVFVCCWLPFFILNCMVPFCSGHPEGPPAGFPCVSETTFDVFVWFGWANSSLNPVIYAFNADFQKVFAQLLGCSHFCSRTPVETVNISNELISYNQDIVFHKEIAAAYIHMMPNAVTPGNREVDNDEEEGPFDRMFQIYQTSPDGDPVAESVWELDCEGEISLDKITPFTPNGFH
T3 sequence (P25106 whole entry): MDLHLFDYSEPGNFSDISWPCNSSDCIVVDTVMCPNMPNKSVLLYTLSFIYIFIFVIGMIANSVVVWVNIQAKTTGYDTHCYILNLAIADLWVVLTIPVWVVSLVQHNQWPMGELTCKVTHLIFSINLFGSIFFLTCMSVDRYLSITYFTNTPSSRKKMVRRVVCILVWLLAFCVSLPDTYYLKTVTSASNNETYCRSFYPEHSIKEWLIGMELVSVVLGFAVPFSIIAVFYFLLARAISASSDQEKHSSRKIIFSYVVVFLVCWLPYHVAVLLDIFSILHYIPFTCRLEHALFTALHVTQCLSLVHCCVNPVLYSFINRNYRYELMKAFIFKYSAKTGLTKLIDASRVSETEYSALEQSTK
Chain of DRD2L (P14416 whole entry): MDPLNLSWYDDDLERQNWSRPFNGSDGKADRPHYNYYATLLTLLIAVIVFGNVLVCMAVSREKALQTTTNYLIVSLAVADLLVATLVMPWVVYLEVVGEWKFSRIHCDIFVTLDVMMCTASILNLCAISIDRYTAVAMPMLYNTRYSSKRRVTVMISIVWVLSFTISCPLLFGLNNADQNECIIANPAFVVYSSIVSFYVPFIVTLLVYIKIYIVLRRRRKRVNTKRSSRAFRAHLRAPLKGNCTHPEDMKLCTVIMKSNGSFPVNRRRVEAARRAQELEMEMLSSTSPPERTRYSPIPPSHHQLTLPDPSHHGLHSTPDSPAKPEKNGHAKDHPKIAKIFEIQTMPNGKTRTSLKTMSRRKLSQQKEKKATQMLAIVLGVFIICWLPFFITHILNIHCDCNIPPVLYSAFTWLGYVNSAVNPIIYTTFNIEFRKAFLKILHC
Chain of DRD2 (P14416 whole entry): as above
Chain of DRD4 (P21917 whole entry): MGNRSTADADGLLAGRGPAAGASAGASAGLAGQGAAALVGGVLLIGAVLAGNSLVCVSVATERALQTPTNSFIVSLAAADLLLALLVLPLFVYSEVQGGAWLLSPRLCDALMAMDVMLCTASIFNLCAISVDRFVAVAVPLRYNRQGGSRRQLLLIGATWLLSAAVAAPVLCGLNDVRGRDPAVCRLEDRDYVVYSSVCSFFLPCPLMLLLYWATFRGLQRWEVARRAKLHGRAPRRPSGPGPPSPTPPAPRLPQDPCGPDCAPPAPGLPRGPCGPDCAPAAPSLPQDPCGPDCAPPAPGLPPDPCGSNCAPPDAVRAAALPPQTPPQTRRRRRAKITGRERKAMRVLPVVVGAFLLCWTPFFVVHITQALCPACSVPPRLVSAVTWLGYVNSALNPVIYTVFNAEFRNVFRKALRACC
Chain of DRD3 (P35462 whole entry): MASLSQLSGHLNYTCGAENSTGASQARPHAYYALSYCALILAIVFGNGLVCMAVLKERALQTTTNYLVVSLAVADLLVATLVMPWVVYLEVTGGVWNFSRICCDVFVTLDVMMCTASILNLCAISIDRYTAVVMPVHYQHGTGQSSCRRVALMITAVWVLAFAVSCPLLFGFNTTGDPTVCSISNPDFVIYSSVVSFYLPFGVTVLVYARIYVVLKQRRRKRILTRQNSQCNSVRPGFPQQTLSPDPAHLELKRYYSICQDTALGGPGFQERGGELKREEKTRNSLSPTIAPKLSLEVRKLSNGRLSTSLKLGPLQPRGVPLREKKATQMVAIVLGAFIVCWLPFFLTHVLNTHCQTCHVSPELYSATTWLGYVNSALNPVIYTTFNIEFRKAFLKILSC
T2 sequence (Q9BXA5 whole entry): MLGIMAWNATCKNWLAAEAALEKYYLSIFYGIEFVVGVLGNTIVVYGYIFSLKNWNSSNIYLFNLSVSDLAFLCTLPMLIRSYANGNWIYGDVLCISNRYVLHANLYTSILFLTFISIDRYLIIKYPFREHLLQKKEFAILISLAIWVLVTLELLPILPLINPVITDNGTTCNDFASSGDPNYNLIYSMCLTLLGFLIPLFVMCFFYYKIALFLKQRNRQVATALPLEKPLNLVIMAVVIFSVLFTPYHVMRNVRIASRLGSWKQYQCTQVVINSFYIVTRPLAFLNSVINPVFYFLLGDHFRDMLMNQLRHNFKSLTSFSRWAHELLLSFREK

Compound: Cc1ccccc1CN1C(=O)C2=C(CCN(Cc3ccccc3)C2)N2CCN=C12 [ONC201, 7-benzyl-4-(2-methylbenzyl)-1,2,6,7,8,9-hexahydroimidazo [1,2-a]pyrido [3,4-e]pyrimidin-5(1H)-one]
activity at DRD2 [1]: selectively antagonizes; also recorded: antagonized | activity at DRD5 (DRD5): no antagonism; also recorded: but not D1-like (DRD1/5) | progression-free survival (PFS) [2]: superior progression-free survival (PFS) in H3 K27M patients | survival of mice with orthotopic xenografts ([3]; monoagent and in combination with bevacizumab): prolongs the survival | effect on xenografts ([3]; temozolomide-resistant high-grade glioma xenografts): shrinks | in vitro efficacy profiling [4]: broad anti-cancer efficacy with high sensitivity in human brain cancer cell lines | activity at DRD4 (DRD4): weaker potency | interactions with the kinome (kinome): no significant interactions | association rate for DRD2 (DRD2): very slow | leukemia xenograft tumor growth (MV411 AML cells): not efficacious | viability at 5000 µg/mL [5]: < 25% | symptoms ([6]; 125 mg once weekly): complete resolution of their inability to use their left arm and hand | radiographic evaluation of tumor ([6]; 125 mg once weekly, after 6 weeks): stable tumor lesion | symptoms ([6]; 500 mg once weekly): near-complete resolution of their facial palsy; also recorded: improvement in facial palsy | radiographic evaluation of tumor ([6]; 500 mg once weekly, after 16 weeks): significant regression; also recorded: shrinkage of lesion | tolerability ([6]; once weekly dosing): tolerates the therapy well | concentration at 2 h [7]: 2600 ng/mL | Median OS (recurrent glioblastoma; [11]): 41.6 weeks | OS12 (recurrent glioblastoma; [11]): 35% | regression (recurrent glioblastoma; one patient, 625 mg every three weeks, after 15 months of therapy): 92% | time on study (recurrent glioblastoma; person one): > 10 weeks | response (recurrent glioblastoma; person one, H3 K27M, first on-treatment evaluation at 8 weeks): complete disappearance of malignant lesions; also recorded: complete disappearance of tumor lesions | time on therapy with durable response (recurrent glioblastoma; person two): > 1.5 years | response (recurrent glioblastoma; person two, H3.3 K27M mutant, 625 mg once every three weeks): durable objective response with complete regression of thalamic lesions | overall tumor size regression (recurrent glioblastoma; person two, H3.3 K27M mutant, 625 mg once every three weeks, after 18 doses): 96% | serum prolactin (recurrent glioblastoma; surrogate marker of target engagement): serum prolactin induction was observed; also recorded: significant induction of serum prolactin | GPCR profile (GPCRs): Antagonism of adrenoceptor alpha receptors or other GPCRs was not observed

Compound: O=C1C2=C(CCN(Cc3ccccc3)C2)N2CCN=C2N1Cc1cccs1 [ONC203]
anti-cancer efficacy [8]: inactive negative control

Compound: O=C1C2=C(CCN(Cc3ccccc3)C2)N2CCN=C2N1Cc1ccc(F)cc1F [ONC206]
activity at DRD2 [1]: selective DRD2 antagonism | anti-cancer efficacy [8]: demonstrated anti-cancer efficacy across various tumor types | anti-cancer efficacy [9]: most ONC206 responsive bone cancer subtype; also recorded: nanomolar range in 14 out of 16 Ewing's sarcoma cell lines | effect on glioma stem cells ([10]; CellTiter-Glo cell viability, compared to differentiated glioma cells): potently inhibits; also recorded: preferentially eliminated GSCs | tumor sphere formation ([10]; in vitro limiting dilution assay and sphere formation analysis): prevented tumor sphere formation and tumor growth | responsiveness (Bone cancer): more responsive to ONC206 than ONC201 | in vitro toxicity to normal cells (HFF (Normal Fibroblast)): no in vitro toxicity to normal cells at therapeutic doses | improvement in in vitro potency compared to ONC201 (several cell lines): up to 20 fold

Compound: O=C1C2=C(CCN(Cc3ccccc3)C2)N2CCN=C2N1Cc1ccc(F)c(F)c1 [ONC213]
activity at DRD2 [1]: inhibitor | DRD2/3 potency ([1]; rank against other imipridones): more than ONC201 but less than ONC206 | activity at DRD3 (DRD3): inhibitor | activity at GPR132 (GPR132): agonist | GPR132 potency (GPR132; rank against other imipridones): less than ONC212 | activity at GPR91 (GPR91): agonist

activity at DRD5 (DRD5): antagonist activity | activity at CXCR7 (CXCR7; arrestin recruitment reporter assay): agonist activity
Compound: O=C1C2=C(CCN(Cc3ccc(Cl)c(Cl)c3)C2)N2CCN=C2N1Cc1ccc(C(F)(F)F)cc1 [ONC234]
activity at DRD2 [1]: antagonist activity | GPCR profile (GPCRs): broad spectrum and potent GPCR targeting small molecule

IC50 (HCT116 cells): 234 nM | IC50 (HCT116 cells; Homo sapiens, HCT-116): 88 nM | activity at GPR132 (GPR132): highly selective GPR132 agonist
Compound: O=C1C2=C(CCN(Cc3ccsc3)C2)N2CCN=C2N1Cc1ccc(C(F)(F)F)cc1 [ONC236]

activity at DRD5 (DRD5): antagonist | activity at GPR132 (GPR132): agonist
Compound: O=C1C2=C(CCN(CC(O)c3ccccc3)C2)N2CCN=C2N1Cc1ccc(C(F)(F)F)cc1 (centres unmarked) [ONC237]

Compound: Cc1ccccc1CN1C2=NCCN2C(=O)C2=C1CCN(Cc1ccccc1)C2 [TIC-10, reference compound]
activity at CXCR7 (CXCR7; statement in the description, no method given): CXCR7 agonist

Compound: TIC-10
inhibition of DRD2L (DRD2L): did not inhibit

From patent US12102639B2, “Imipridones for gliomas” (Oncoceutics, Inc., priority 2017, dated 2024)
